# Experiments:
# Format in all cases: functional
# [1] = tested on: Rattus norvegicus; experiment: Hypotensive index (HI) measured as the area under the time-hypotensive response curve for 6-h period at 30 mg/kg, po
# [2] = organism: Cavia porcellus; experiment: Integrated vasodilating potency (IVP) (the product of compound-induced maximum percent decrease in the perfusion pressure and the duration of the effect in minutes at 100 ug (ia))
# [3] = organism: Cavia porcellus; experiment: Integrated vasodilating potency (the product of compound-induced maximum percent decrease in the perfusion pressure and the duration of the effect in minutes at 100 ug (ia); Coronary vasoconstricting action)
Compound,HI [1],IVP [2],IVP [3]
Cc1nc2nc(C)c3c(n2n1)N(CCCN1CCCC1)CC3,10,0,
COc1ccc(CN2c3c(c(C)nc4ncnn34)CC2C)cc1 (centres undefined),11,82,
Cc1nc2ncnn2c2[nH]ccc12,60,45,
Cc1nc2ncnn2c2c1CCN2c1ccccc1,15,72,
COc1cc(-c2nc3nc(C)c4c(n3n2)N(Cc2ccccc2Cl)CC4)cc(OC)c1OC,0,,Coronary vasoconstricting action
Cc1nc2ncnn2c2c1CC[N+]2(C)C(C)(C)C.[I-] (centres undefined),0,9,
Cc1nc2nc(C)c3c(n2n1)N(Cc1ccccc1Cl)CC3,18,15,
Cc1nc2ncnn2c2c1CC(C)N2Cc1ccccc1F (centres undefined),5,64,
Cc1nc2ncnn2c2c1CCN2CCCN1CCOCC1,40,3,
CCCN1CCN(CCCN2CCc3c(C)nc4ncnn4c32)CC1,0,3,
COc1ccc(CN2CCc3c(C)nc4ncnn4c32)cc1OC,55,174,
Cc1nc2ncnn2c2c1CC(C)N2C(C)(C)C (centres undefined),,47,
COc1cc(C(=O)OCCCN2CCc3c(C)nc4ncnn4c32)cc(OC)c1OC,10,26,
COc1ccc(CCN2CCc3c(C)nc4ncnn4c32)cc1OC,15,11,
Cc1nc2ncnn2c2c1CCN2CCN1CCOCC1,5,16,
c1ccc(CCN2CCc3c(C4CC4)nc4ncnn4c32)cc1,12,180,
Cc1nc2ncnn2c2c1CCN2c1ccc(S(N)(=O)=O)cc1,0,14,
CCC1Cc2c(C)nc3ncnn3c2N1C(C)(C)C (centres undefined),12,227,
N=C(N)NCCN1CCCCCCC1.N=C(N)NCCN1CCCCCCC1.O=S(=O)(O)O [GUANETHIDINE SULFATE],195,,
C=CCN1CCc2c(C)nc3ncnn3c21,70,56,
CCCCCN1CCc2c(C)nc3ncnn3c21,6,15,
Cc1nc2ncnn2c2c1CCN2CCOC(=O)c1cccnc1,30,7,
Cc1nc2nc(-c3ccc(Cl)cc3)nn2c2c1CCN2C(C)C,0,,Coronary vasoconstricting action
Cc1nc2ncnn2c2c1NCCN2C,5,0,
Cc1nc2ncnn2c2c1CCN2C,10,50,
Cc1nc2ncnn2c2c1CCN2CCN1CCCC1,0,2,

Compound,HI [1],IVP [2],IVP [3]
Cc1nc2ncnn2c2c1CCN2CCOCCO,10,22,
CCCCCCCCCCCCN1CCc2c(C)nc3ncnn3c21,10,,
COc1cc(CN2CCc3c(C)nc4ncnn4c32)cc(OC)c1OC,15,109,
Cc1nc2ncnn2c2c1CCN2CCC(=O)c1ccccc1,17,32,
Cc1nc2ncnn2c2c1ccn2Cc1ccccc1Cl,12,22,
COc1cc(-c2nc3nc(C)c4c(n3n2)N(C(C)(C)C)CC4)cc(OC)c1OC,50,222,
CCN1CCc2c(C)nc3ncnn3c21,10,12,
Cc1nc2ncnn2c2c1CCN2C(C)COc1ccccc1 (centres undefined),65,63,
Cc1nc2ncnn2c2c1CCN2CCCN1CCCC1,75,0,
CC(C)(C)CN1CCc2c(C3CC3)nc3ncnn3c21,20,50,
Cc1nc2ncnn2c2c1CCN2,55,6,
Cc1nc2ncnn2c2c1CCCN2Cc1ccccc1F,0,,Coronary vasoconstricting action
CCCCN(CCCC)CCCN1CCc2c(C)nc3ncnn3c21,40,0,
CCC1Cc2c(C)nc3ncnn3c2N1Cc1ccccc1F (centres undefined),0,67,
Cc1nc2ncnn2c2c1CCN2C1CCCCC1,12,65,
Cc1nc2ncnn2c2c1CCN2c1c(Cl)cccc1Cl,0,7,
CCCCCCCCCCN1CCc2c(C)nc3ncnn3c21,7,,
Cc1nc2ncnn2c2c1CCN2CCCN(CCO)CCO,45,0,
Cc1nc2ncnn2c2c1CCN2CCC(C)C,5,118,
Clc1ccccc1CN1CCc2c(C3CC3)nc3ncnn3c21,,5,
Cc1nc2ncnn2c2c1CCN2C1CCCCCCC1,15,,Coronary vasoconstricting action
CCCCCCN1CCc2c(C)nc3ncnn3c21,10,14,
Cc1nc2ncnn2c2c1C(C)CN2C(C)(C)C (centres undefined),20,333,
COc1cc(C(=O)OCCN2CCc3c(C)nc4ncnn4c32)cc(OC)c1OC,0,21,
Cc1nc2ncnn2c2c1CCN2CC(O)CO (centres undefined),15,,Coronary vasoconstricting action
Cc1nc2ncnn2c2c1CC(C)N2C(C)C (centres undefined),0,10,

Compound,HI [1],IVP [2],IVP [3]
Cc1nc2ncnn2c2c1CCN2C(C)(C)CO,75,38,
Cc1nc2nc(-c3ccccc3)nn2c2c1CCN2Cc1ccccc1F,8,,Coronary vasoconstricting action
Cc1nc2nc(-c3ccccc3)nn2c2c1CCN2C(C)(C)C,0,,Coronary vasoconstricting action
Cc1nc2nc(-c3ccc(Cl)cc3)nn2c2c1CCN2C(C)(C)C,10,,Coronary vasoconstricting action
Cc1ccc(CN2CCc3c(C)nc4ncnn4c32)cc1,15,119,
Cc1nc2ncnn2c2c1CCN2C(C)(C)CC(C)(C)C,,32,
Cc1nc2ncnn2c2c1CC(C)N2Cc1ccccc1Cl (centres undefined),8,80,
Cc1nc2ncnn2c2c1ccn2C(C)(C)C,160,246,
CCCCN1c2c(c(C)nc3ncnn23)CC1C (centres undefined),45,50,
Cc1nc2ncnn2c2c1CCCO2,,0,
Cc1nc2ncnn2c2c1CCN2Cc1ccc(Cl)cc1,145,250,
COc1ccc(Cn2ccc3c(C)nc4ncnn4c32)cc1,0,55,
COc1ccc(CN2CCc3c(C)nc4ncnn4c32)cc1,13,55,
CCC1Cc2c(C)nc3ncnn3c2N1C(C)C (centres undefined),20,0,
Cc1nc2ncnn2c2c1CCN2CCc1ccccc1,5,100,
CCC(C)N1CCc2c(C)nc3ncnn3c21 (centres undefined),100,5,
Cc1nc2ncnn2c2c1CCN2CCCN(C)C,10,0,
Cc1nc2ncnn2c2c1CCN2Cc1ccccc1,170,46,
Cc1nc2ncnn2c2c1ccn2CC(C)C,15,38,
COc1ccc(-c2nc3nc(C)c4c(n3n2)N(C)CC4)cc1,0,0,
Cc1nc2ncnn2c2c1CCN2CCN1CCN(C)CC1,10,20,
COc1ccc(-c2nc3nc(C)c4c(n3n2)N(CCCN2CCCC2)CC4)cc1,0,0,
Cc1nc2ncnn2c2c1CCN2CCCN1CCCCC1,45,5,
Cc1nc2ncnn2c2c1N(C)CCN2C,25,45,
Cc1nc2ncnn2c2c1CCN2CCN1CCCCC1,10,2,
CNC1(C)C2CCC(C2)C1(C)C (centres undefined) [MECAMYLAMINE],110,,

Compound,HI [1],IVP [2],IVP [3]
Cc1nc2ncnn2c2c1CCN2C(C)c1ccccc1 (centres undefined),5,137,
Cc1nc2ncnn2c2c1CCN2CCCO,105,12,
Cc1nc2ncnn2c2c1CCN2CC(C)C,60,107,
Cc1nc2ncnn2c2c1CCN2C(C)CC(C)C (centres undefined),5,86,
Cc1nc2ncnn2c2c1CCS2,10,0,
CCN(CC)CCN1CCc2c(C)nc3ncnn3c21,0,1,
Cc1nc2ncnn2c2c1CCN2CCS,10,285,
Cc1nc2ncnn2c2c1CCN2C(C)C,0,24,
Cc1nc2ncnn2c2c1CCN2CCCOC(=O)c1cccnc1,30,24,
Cc1nc2ncnn2c2c1CCN2Cc1ccccc1F,5,351,
Cc1nc2ncnn2c2c1CCN2CCO,0,12,
Cc1nc2nc(-c3ccccc3)nn2c2c1CCN2CCCN1CCCC1,44,105,
Cc1nc2nc(C)c3c(n2n1)N(C(C)(C)C)CC3,35,18,
CCCN1CCc2c(C)nc3ncnn3c21,15,193,
CC(C)N1CCc2c(C3CC3)nc3ncnn3c21,5,45,
Cc1nc2ncnn2c2c1CCN2Cc1ccccc1Cl,30,86,
Cc1nc2ncnn2c2c1CCN2C1CCCCCC1,45,440,
Cc1nc2ncnn2c2c1CCN2CC(C)(C)C,40,760,
CCCCN1c2c(c(C)nc3ncnn23)CC1CC (centres undefined),10,120,
Cc1cn(C(C)(C)C)c2c1c(C)nc1ncnn12,20,330,
CC(C)(C)N1CCc2c(C3CC3)nc3ncnn3c21,20,125,
Cc1nc2ncnn2c2c1CCN2C(C)C(O)c1ccccc1 (centres undefined),0,8,
CCCCN1CCc2c(C)nc3ncnn3c21,145,30,

# — ChEMBL document CHEMBL1121497, “Studies on cardiovascular agents. 6. Synthesis and coronary vasodilating and antihypertensive activities of 1,2,4-triazolo[1,5-a]pyrimidines fused to heterocyclic systems” (1980)
